# Tests used:
# [1] = system: APP/PS1-derived hippocampal neuronal cultures; assay: ELISA of Aβ production in primary hippocampal neuronal cultures; type: cell-based, mice; details: 200nM C18:1-Leu, 24h vs vehicle; n=5, p=0.0093
# Procedure: (§1) • Fig. 1. C18:1-Leu treatment in neuronal cultures. a, Enzyme-linked immunosorbent assays (ELISA) of APP/PS1-derived hippocampal neuronal cultures treated during 24h with 200nM C18:1-Leu. n=5 per group, p=0.0093; one-sided Student's t-test. b, Lactate dehydrogenase (LDH) release viability assay of APP/PS1-derived hippocampal neuronal cultures treated during 16h with 150µM H2O2 and 200nM C18:1-Leu. ROS, reactive oxygen species. n=10 per group, p=0.0048; one-sided Student's t-test. b, AlamarBlue cell viability assay of SH-SY5Y cells treated during 24h with 10µM thapsigargin and 200nM C18:1 -Leu. UPS, unfolded-protein stress. n=5 per group, p=0.0084; one-sided Student's t-test. Single values (experiments) are represented by dots. *p<0.05, and **p<0.01. • Fig. 2. […] AD pathologies and phenotypes in APP/PS1 mice. a, Methoxy-X04 (MX04) IHC amyloid burden (area) quantification. n=8 per group, p=0.0283; one-sided Student's t-test. b, Novel object recognition (NOR) performance of vehicle and C18:1-Leu treated APP/PS1 mice. […]
# [2] = system: APP/PS1-derived hippocampal neuronal cultures; assay: LDH release viability assay under H2O2 (ROS) stress; type: cell-based, mice; details: 200nM C18:1-Leu, 16h with 150µM H2O2 (Fig. 1b legend); n=10, p=0.0048
# Procedure: as §1
# SH-SY5Y cells = assay: AlamarBlue cell viability assay under thapsigargin (unfolded-protein stress); type: cell-based, human; details: 200nM C18:1-Leu, 24h with 10µM thapsigargin; n=5, p=0.0084
# Procedure: as §1
# GMC101 worms [3] = assay: Mobility phenotyping of GMC101 worms (AD model); type: in vivo, C. elegans; details: 200 µM C18:1-Leu, first 3 days of adulthood, vs vehicle
# Procedure: as §1
# GMC101 worms [4] = assay: Amyloid aggregation in GMC101 worms (western blot); type: in vivo, C. elegans; details: 200 µM C18:1-Leu, GMC101 worms at day 1, vs vehicle; p=0.0108
# Procedure: as §1
# APP/PS1 mice [5] = assay: Immunohistochemistry of brain sections of treated APP/PS1 mice (amyloid plaques, microglia, neuronal damage); type: in vivo
# Procedure: • Fig. 1. C18:1-Leu treatment in neuronal cultures. a, Enzyme-linked immunosorbent assays (ELISA) of APP/PS1-derived hippocampal neuronal cultures treated during 24h with 200nM C18:1-Leu. n=5 per group, p=0.0093; one-sided Student's t-test. b, Lactate dehydrogenase (LDH) release viability assay of APP/PS1-derived hippocampal neuronal cultures treated during 16h with 150µM H2O2 and 200nM C18:1-Leu. ROS, reactive oxygen species. n=10 per group, p=0.0048; one-sided Student's t-test. b, AlamarBlue cell viability assay of SH-SY5Y cells treated during 24h with 10µM thapsigargin and 200nM C18:1 -Leu. UPS, unfolded-protein stress. n=5 per group, p=0.0084; one-sided Student's t-test. Single values (experiments) are represented by dots. *p<0.05, and **p<0.01. • Fig. 2. AD pathologies and phenotypes in GMC101 worms. a, Mobility assessment in vehicle and C18:1-Leu treated GMC101 worms during the 3 first days of adulthood. a.u., arbitrary units. n=75-100 worms per time, p=0.0001 and p=0.0152 for day 2 and 3, respectively; one-sided Student's t-test. b, Pumping per minute in vehicle and C18:1-Leu treated GMC101 worms at day 3. n=7 per group, p=0.0162; one-sided t-test. c, Relative amyloid aggregation in vehicle and C18:1-Leu treated GMC101 worms at day 1. n=6 experiments of -1000 worms each, pval=0.0108; one-sided Student's t-test. Single values (animals) are represented by dots. *p<0.05, and ***p<0.001. • Fig. 3. AD pathologies and phenotypes in APP/PS1 mice. a, Methoxy-X04 (MX04) IHC amyloid burden (area) quantification. n=8 per group, p=0.0283; one-sided Student's t-test. b, Novel object recognition (NOR) performance of vehicle and C18:1-Leu treated APP/PS1 mice. C18:1-Leu was provided from 15 to 18 months (m) of age. n=11-15 per group, p=0.0312. Single values (animals) are represented by dots. *p<0.05, **p<0.01, and ***p<0.001. • Fig. 4. Microglia analysis in C18:1-Leu treated APP/PS1 mice. a, Quantification of Ionized calcium-binding adaptor molecule 1 (IBA1, microglia) area within methoxy-X04 (MX04, amyloid plaques) region of interest (ROI). n=6-7 per group, p=0.0051; one-sided Student's t-test. b, Amyloid plaque number quantification. n=8 per group, p=0.0444; one-sided Student's t-test. c, Percentage of amyloid halo (diffuse, toxic) area over plaque dense core. n=8 per group, p=0.0389; one-sided Student's t-test. d, Percentage of the Lysosome-associated protein 1 (LAMP1, neuronal damage) area over to plaque dense core. n=8-9 per group, p=0.0132; one-sided Student's t-test. Single values (animals) are represented by dots. *p<0.05, and **p<0.01. • Fig. 5. C18:1-Leu treatment in microglia cultures. a, Transwell assay of APP/PS1-derived primary microglia treated during 24h with 200nM C18:1-Leu. n=6 per group, p=0.0007; one-sided Student's t-test. b, Amyloid-beta 40 (Aβ40) ELISA assays of APP/PS1-derived primary microglia cultures after 24h of 200nM C18:1-Leu treatment in presence of amyloid-beta (Aβ). n=5 per group, p=0.0201; one-sided Student's t-test. Single values (experiments) are represented by dots. *p<0.05, **p<0.01, and ***p<0.001. • Fig. 6. RNA expression signatures in human samples I. C18:1-Leu score according to PM20D1 haplotype in Alzheimer's disease (AD) and control postmortem brain samples. a, n=387 control and n=511 AD samples, Wilcoxon test, ****p<0.0001 • Fig. 7. RNA expression signatures in human samples II. Correlation between PIG and C18:1-Leu scores in AD samples. n=511 AD samples, Spearman correlation. • Fig. 8. […]
# APP/PS1 mice [6] = assay: Novel object recognition test in APP/PS1 mice; type: in vivo; details: 25 mg/kg/day p.o. during three months, starting at 15 months-of-age; n=11-15, p=0.0312
# Procedure: as §1
# [7] = system: APP/PS1-derived primary microglia; assay: Transwell migration assay (Aβ chemotaxis) of primary microglia; type: cell-based, mice; details: 200nM C18:1-Leu, 24h, conditioned Aβ media in lower chamber; n=6, p=0.0007
# Procedure: as §1
# [8] = system: APP/PS1-derived primary microglia; assay: Aβ clearance by primary microglia, Amyloid beta 40 ELISA; type: cell-based, mice; details: 200nM C18:1-Leu, 24h in presence of Aβ; n=5, p=0.0201
# Procedure: as §1
structure (smiles),measurement,setting,value
"CCCCCCCC/C=C\CCCCCCCC(=O)N[C@@H](CC(C)C)C(=O)O [C18:1-Leu, N-oleoyl-L-Leucine]",Aβ production,[1],reduces Aβ production in neuronal cells
same,"neuroprotection against ROS (cell viability, LDH release)",[2],increases neuroprotection against ROS
same,"neuroprotection against UPS stress (cell viability, AlamarBlue)",SH-SY5Y cells,increases neuroprotection
same,AD-like phenotypes - spontaneous and induced mobility,GMC101 worms [3],significantly improves
same,amyloid pathologies (relative amyloid aggregation),GMC101 worms [4],significantly improves
same,amyloid burden (Methoxy-X04 IHC area),"APP/PS1 mice [5]; 25 mg/kg/day p.o. during three months, starting at 15 months-of-age, n=8, p=0.0283",improves amyloid burden
same,microglia association with amyloid plaques (relative MX04 area occupied by IBA1),"APP/PS1 mice [5]; C18:1-Leu treated APP/PS1 mice vs vehicle, n=6-7, p=0.0051",increased microglia association
same,relative size of the diffuse halo of the plaques,"APP/PS1 mice [5]; C18:1-Leu treated APP/PS1 mice vs vehicle, n=8, p=0.0389",reduced
same,number of amyloid plaques,"APP/PS1 mice [5]; C18:1-Leu treated APP/PS1 mice vs vehicle, n=8, p=0.0444",reduced
same,LAMP1 area (neuronal damage) over plaque dense core,"APP/PS1 mice [5]; C18:1-Leu treated APP/PS1 mice vs vehicle, n=8-9, p=0.0132",stronger LAMP1 area reduction
same,cognitive deficits (novel object recognition test),APP/PS1 mice [6],improves
same,Aβ chemotaxis (migrated microglia),[7],increased Aβ chemotaxis
same,Aβ clearance (remaining Aβ40 in media),[8],increases Aβ clearance

# — patent EP4635490A1, “PM20D1-DERIVED N-OLEOYL-L-LEUCINE FOR THE TREATMENT AND PREVENTION OF NEURODEGENERATIVE DISEASES” (Consejo Superior De Investigaciones Científicas, priority 2024, dated 2025)
